Values of other authors in patent publication US11747352B2 (Concordia University, Inc., priority 2017, dated 2023).
Read-outs that look alike come from different tables or passages of the source.

Conditions: cited from earlier work

COc1ccc2cccc(CCNC(C)=O)c2c1 [Agomelatine]
HALF LIFE (Table CYP1A2): 1 to 2 h

C=CCc1ccccc1OCC(O)CNC(C)C (centres unmarked) [Alprenolol]
HALF LIFE (Table CYP2D6): 2 to 3 h

CN1CCN(C2=Nc3cc(Cl)ccc3Nc3ccccc32)CC1 [Clozapine]
HALF LIFE (Table CYP1A2): 4 to 66 h

COc1ccc2c3c1O[C@H]1[C@@H](O)C=C[C@H]4[C@@H](C2)N(C)CC[C@@]341 [Codeine]
HALF LIFE (in vivo): 2.5 to 3 h

CN(C)CCC=C1c2ccccc2C=Cc2ccccc21 [Cyclobenzaprine]
HALF LIFE (Table CYP1A2): 8 to 37 h

CCN[C@@H](C)Cc1cccc(C(F)(F)F)c1 [Dexfenfluramine]
HALF LIFE (in vivo): 17 to 20 h

CN[C@@H](C)Cc1ccccc1 [Dextromethamphetamine]
HALF LIFE (Table CYP2D6): 12 h

COc1ccc2c(c1)[C@]13CCCC[C@@H]1[C@H](C2)N(C)CC3 [Dextromethorphan]
HALF LIFE (in vivo): 1.4 to 3.9 h

O=C(O)Cc1ccccc1Nc1c(Cl)cccc1Cl [Diclofenac]
HALF LIFE (Table CYP2C9): 1.9 to 2.2 h

COCCCC/C(=N\OCCN)c1ccc(C(F)(F)F)cc1 [Fluvoxamine]
HALF LIFE (Table CYP1A2): ~14 to 16 h

CCC1=C(C)CN(C(=O)NCCc2ccc(S(=O)(=O)NC(=O)N[C@H]3CC[C@H](C)CC3)cc2)C1=O [Glimepiride]
HALF LIFE (Table CYP2C9): 5 to 9.2 h

O=C(CCCN1CCC(O)(c2ccc(Cl)cc2)CC1)c1ccc(F)cc1 [Haloperidol]
HALF LIFE (Table CYP1A2): 14 to 37 h | HALF LIFE (Table CYP2D6): 14 to 37 h

COc1ccc2c3c1O[C@H]1C(=O)CC[C@H]4[C@@H](C2)N(C)CC[C@]314 [Hydrocodone]
HALF LIFE (in vivo): 7 to 9 h

COc1cc(C(C)=O)ccc1OCCCN1CCC(c2noc3cc(F)ccc23)CC1 [Iloperidone]
HALF LIFE (Table CYP2D6): 18 to 33 h

COc1ccc2[nH]cc(CCNC(C)=O)c2c1 [Melatonin]
HALF LIFE (Table CYP1A2): 0.583 to 0.833 h

CCC1(c2ccccc2)C(=O)NC(=O)N(C)C1=O (centres unmarked) [Methylphenobarbital]
HALF-LIFE (in vivo): 11 to 67 h

CCN(CC)CCNC(=O)c1cc(Cl)c(N)cc1OC [Metoclopramide]
HALF LIFE (Table CYP2D6): 5 to 6 h

COCCc1ccc(OCC(O)CNC(C)C)cc1 (centres unmarked) [Metoprolol]
HALF LIFE (Table CYP2D6): 3 to 7 h

Cc1cc(-c2ccccc2)nnc1NCCN1CCOCC1 [Minaprine]
HALF LIFE (Table CYP2D6): 2 to 2.5 h

CN(C)C[C@H]1CCCC[C@]1(O)c1cccc(O)c1 [O-desmethyltramadol]
HALF LIFE (Table CYP2D6): 9 h

Cc1cc2c(s1)Nc1ccccc1N=C2N1CCN(C)CC1 [Olanzapine]
HALF LIFE (Table CYP1A2): 21 to 54 h

Cc1nccn1CC1CCc2c(c3ccccc3n2C)C1=O (centres unmarked) [Ondansetron]
HALF LIFE (Table CYP1A2): 3 to 6 h | HALF LIFE (Table CYP2D6): 3 to 6.2 h

CC(=O)O[C@H]1C(=O)[C@@]2(C)[C@H]([C@H](OC(=O)c3ccccc3)[C@]3(O)C[C@H](OC(=O)[C@H](O)[C@@H](NC(=O)c4ccccc4)c4ccccc4)C(C)=C1C3(C)C)[C@]1(OC(C)=O)CO[C@@H]1C[C@@H]2O [Paclitaxel]
HALF-LIFE (Table CYP3A4): 13.1 to 57.7 h

CC(=O)Nc1ccc(O)cc1 [Paracetamol]
HALF LIFE (Table CYP1A2): 1 to 4 h

Fc1ccc([C@@H]2CCNC[C@H]2COc2ccc3c(c2)OCO3)cc1 [Paroxetine]
HALF LIFE (Table CYP2D6): 15 to 21 h

C1CCC(C(CC2CCCCN2)C2CCCCC2)CC1 (centres unmarked) [Perhexiline]
HALF LIFE (Table CYP2D6): 12 to 18 h

OCCN1CCN(CCCN2c3ccccc3Sc3ccc(Cl)cc32)CC1 [Perphenazine]
HALF LIFE (Table CYP2D6): 9 to 12 h

CC(CN1c2ccccc2Sc2ccccc21)N(C)C (centres unmarked) [Promethazine]
HALF LIFE (Table CYP2D6): 16 to 19 h

CCN1CCC[C@H]1CNC(=O)c1c(OC)ccc(Br)c1OC [Remoxipride]
HALF LIFE (Table CYP2D6): 3 to 6 h

Cc1nc2n(c(=O)c1CCN1CCC(c3noc4cc(F)ccc34)CC1)CCCC2 [Risperidone]
HALF LIFE (Table CYP2D6): 3 to 20 h

CN(CCOc1ccc(CC2SC(=O)NC2=O)cc1)c1ccccn1 (centres unmarked) [Rosiglitazone]
HALF LIFE (Table CYP2C9): 3 to 4 h

CC(C(=O)O)c1ccc(C(=O)c2cccs2)cc1 (centres unmarked) [Suprofen]
HALF LIFE (Table CYP2C9): 2 to 4 h

Nc1c2c(nc3ccccc13)CCCC2 [Tacrine]
HALF LIFE (in vivo): 2 to 4 h

CC/C(=C(\c1ccccc1)c1ccc(OCCN(C)C)cc1)c1ccccc1 [Tamoxifen]
HALF LIFE (Table CYP1A2): ~120 to 170 h | HALF LIFE (Table CYP2C9): 120 to 170 h | HALF LIFE (Table CYP2D6): 120 to 170 h
